Measured values taken from US20250171457A1, “NITROGEN-CONTAINING HETEROCYCLIC COMPOUND HAVING NRF2 ACTIVATION EFFECT” (CHUGAI SEIYAKU KABUSHIKI KAISHA, priority 2022, published 2025).

System: Nrf2 transcriptional activity (pARE-Luc reporter) in HepG2 cells
Assay: In vitro Nrf2 transcriptional activity measurement by ARE-dependent reporter assay in HepG2 cell
Format: cell-based, human
Conditions: Homo sapiens; HepG2 cells transfected with pARE-Luc, 4 hours at 37° C.; luciferase activity of Example 1-54 or Example 17-23 at 3.75 μM defined as 100%
Procedure, shortened: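 Luminescence readout (Bright-Glo) after 4 h, 37° C compound exposure of HepG2 cells carrying the ARE-luciferase vector pGL4.37. Each well converted to % response versus reference compound at 3.75 μM, and EC50 derived from dose-response curves.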

Compound | EC50 [nM]
Cn1cc2cncc(-c3cc(Cl)c(C(=O)N4COc5c(cccc5-c5cc(N6C7CCC6COC7)c(C(=O)O)cc5F)C4)c(Cl)c3)c2n1 [Compound 3-6, 4-[3-[2,6-Dichloro-4-(2-methylpyrazolo[4,3-c]pyridin-7-yl)benzoyl]-2,4-dihydro-1,3-benzoxazin-8-yl]-5-fluoro-2-(3-oxa-8-azabicyclo[3.2.1]octan-8-yl)benzoic acid] | 9
Cn1ncc2c(-c3cc(Cl)c(C(=O)N4COc5c(cccc5-c5cc(N6C7CCC6COC7)c(C(=O)O)cc5F)C4)c(Cl)c3)cccc21 [Compound 3-7, 4-[3-[2,6-Dichloro-4-(1-methylindazol-4-yl)benzoyl]-2,4-dihydro-1,3-benzoxazin-8-yl]-5-fluoro-2-(3-oxa-8-azabicyclo[3.2.1]octan-8-yl)benzoic acid] | 9.6
Cc1nc2c(-c3cc(Cl)c(C(=O)N4COc5c(cccc5-c5cc(N6C7CCC6COC7)c(C(=O)O)cc5F)C4)c(Cl)c3)cncc2n1C [Compound 3-8, 4-[3-[2,6-Dichloro-4-(2,3-dimethylimidazo[4,5-c]pyridin-7-yl)benzoyl]-2,4-dihydro-1,3-benzoxazin-8-yl]-5-fluoro-2-(3-oxa-8-azabicyclo[3.2.1]octan-8-yl)benzoic acid] | 17
Cn1nnc2cc(-c3cc(Cl)c(C(=O)N4COc5c(cccc5-c5cc(N6C7CCC6COC7)c(C(=O)O)cc5F)C4)c(Cl)c3)cnc21 [Compound 3-9, 4-[3-[2,6-Dichloro-4-(3-methyltriazolo[4,5-b]pyridin-6-yl)benzoyl]-2,4-dihydro-1,3-benzoxazin-8-yl]-5-fluoro-2-(3-oxa-8-azabicyclo[3.2.1]octan-8-yl)benzoic acid] | 10
Cn1nc2cncc(-c3cc(Cl)c(C(=O)N4COc5c(cccc5-c5cc(N6C7CCC6COC7)c(C(=O)O)cc5F)C4)c(Cl)c3)c2n1 [Compound 3-10, 4-[3-[2,6-Dichloro-4-(2-methyltriazolo[4,5-c]pyridin-7-yl)benzoyl]-2,4-dihydro-1,3-benzoxazin-8-yl]-5-fluoro-2-(3-oxa-8-azabicyclo[3.2.1]octan-8-yl)benzoic acid] | 4.7
Cn1nnc2c(-c3cc(Cl)c(C(=O)N4COc5c(cccc5-c5cc(N6C7CCC6COC7)c(C(=O)O)cc5F)C4)c(Cl)c3)cncc21 [Compound 3-11, 4-[3-[2,6-Dichloro-4-(3-methyltriazolo[4,5-c]pyridin-7-yl)benzoyl]-2,4-dihydro-1,3-benzoxazin-8-yl]-5-fluoro-2-(3-oxa-8-azabicyclo[3.2.1]octan-8-yl)benzoic acid] | 5.7
Cn1cc2cc(-c3cc(Cl)c(C(=O)N4COc5c(cccc5-c5cc(N6C7CCC6COC7)c(C(=O)O)cc5F)C4)c(Cl)c3)ccc2n1 [Compound 3-12, 4-[3-[2,6-Dichloro-4-(2-methylindazol-5-yl)benzoyl]-2,4-dihydro-1,3-benzoxazin-8-yl]-5-fluoro-2-(3-oxa-8-azabicyclo[3.2.1]octan-8-yl)benzoic acid] | 8.7
Cn1cc2nc(-c3cc(Cl)c(C(=O)N4COc5c(cccc5-c5cc(N6C7CCC6COC7)c(C(=O)O)cc5F)C4)c(Cl)c3)ccc2n1 [Compound 3-13, 4-[3-[2,6-Dichloro-4-(2-methylpyrazolo[4,3-b]pyridin-5-yl)benzoyl]-2,4-dihydro-1,3-benzoxazin-8-yl]-5-fluoro-2-(3-oxa-8-azabicyclo[3.2.1]octan-8-yl)benzoic acid] | 9.7
Cn1ncc2cc(-c3cc(Cl)c(C(=O)N4COc5c(cccc5-c5cc(N6C7CCC6COC7)c(C(=O)O)cc5F)C4)c(Cl)c3)cnc21 [Compound 3-14, 4-[3-[2,6-Dichloro-4-(1-methylpyrazolo[3,4-b]pyridin-5-yl)benzoyl]-2,4-dihydro-1,3-benzoxazin-8-yl]-5-fluoro-2-(3-oxa-8-azabicyclo[3.2.1]octan-8-yl)benzoic acid] | 8.8
Cn1ncc2cc(-c3cc(Cl)c(C(=O)N4COc5c(cccc5-c5cc(N6C7CCC6COC7)c(C(=O)O)cc5F)C4)c(Cl)c3)ccc21 [Compound 3-15, 4-[3-[2,6-Dichloro-4-(1-methylindazol-5-yl)benzoyl]-2,4-dihydro-1,3-benzoxazin-8-yl]-5-fluoro-2-(3-oxa-8-azabicyclo[3.2.1]octan-8-yl)benzoic acid] | 8.4
Cn1ncc2c(-c3cc(Cl)c(C(=O)N4COc5c(cccc5-c5cc(N6C7CCC6COC7)c(C(=O)O)cc5F)C4)c(Cl)c3)ccnc21 [Compound 3-16, 4-[3-[2,6-Dichloro-4-(1-methylpyrazolo[3,4-b]pyridin-4-yl)benzoyl]-2,4-dihydro-1,3-benzoxazin-8-yl]-5-fluoro-2-(3-oxa-8-azabicyclo[3.2.1]octan-8-yl)benzoic acid] | 11
Cn1nc2nccc(-c3cc(Cl)c(C(=O)N4COc5c(cccc5-c5cc(N6C7CCC6COC7)c(C(=O)O)cc5F)C4)c(Cl)c3)c2n1 [Compound 3-17, 4-[3-[2,6-Dichloro-4-(2-methyltriazolo[4,5-b]pyridin-7-yl)benzoyl]-2,4-dihydro-1,3-benzoxazin-8-yl]-5-fluoro-2-(3-oxa-8-azabicyclo[3.2.1]octan-8-yl)benzoic acid] | 12
O=C(O)c1cc(F)c(-c2cccc3c2OCN(C(=O)c2c(Cl)cc(-c4ccn5cncc5c4)cc2Cl)C3)cc1N1C2CCC1COC2 [Compound 3-18, 4-[3-(2,6-Dichloro-4-imidazo[1,5-a]pyridin-7-ylbenzoyl)-2,4-dihydro-1,3-benzoxazin-8-yl]-5-fluoro-2-(3-oxa-8-azabicyclo[3.2.1]octan-8-yl)benzoic acid] | 20
Cn1nnc2c(-c3cc(Cl)c(C(=O)N4COc5c(cccc5-c5cc(N6C7CCC6COC7)c(C(=O)O)cc5F)C4)c(Cl)c3)ccnc21 [Compound 3-19, 4-[3-[2,6-Dichloro-4-(3-methyltriazolo[4,5-b]pyridin-7-yl)benzoyl]-2,4-dihydro-1,3-benzoxazin-8-yl]-5-fluoro-2-(3-oxa-8-azabicyclo[3.2.1]octan-8-yl)benzoic acid] | 8
Cn1nc2cc(-c3cc(Cl)c(C(=O)N4COc5c(cccc5-c5cc(N6C7CCC6COC7)c(C(=O)O)cc5F)C4)c(Cl)c3)cnc2n1 [Compound 3-20, 4-[3-[2,6-Dichloro-4-(2-methyltriazolo[4,5-b]pyridin-6-yl)benzoyl]-2,4-dihydro-1,3-benzoxazin-8-yl]-5-fluoro-2-(3-oxa-8-azabicyclo[3.2.1]octan-8-yl)benzoic acid] | 9
Cn1cc(-c2cc(Cl)c(C(=O)N3COc4c(cccc4-c4cc(N5C6CCC5COC6)c(C(=O)O)cc4F)C3)c(Cl)c2)c2nccnc21 [Compound 3-21, 4-[3-[2,6-Dichloro-4-(5-methylpyrrolo[2,3-b]pyrazin-7-yl)benzoyl]-2,4-dihydro-1,3-benzoxazin-8-yl]-5-fluoro-2-(3-oxa-8-azabicyclo[3.2.1]octan-8-yl)benzoic acid] | 6.4
O=C(O)c1cc(F)c(-c2cccc3c2OCN(C(=O)c2c(Cl)cc(-c4cnc5n4CCC5)cc2Cl)C3)cc1N1C2CCC1COC2 [Compound 3-22, 4-[3-[2,6-Dichloro-4-(6,7-dihydro-5H-pyrrolo[1,2-a]imidazol-3-yl)benzoyl]-2,4-dihydro-1,3-benzoxazin-8-yl]-5-fluoro-2-(3-oxa-8-azabicyclo[3.2.1]octan-8-yl)benzoic acid] | 21
